From patent US20230406803A1, “TROPOLONE DERIVATIVES AND TAUTOMERS THEREOF FOR IRON REGULATION IN ANIMALS” (Kinesid Therapeutics, Inc, priority 2020, published 2023)
Marks after values point to notes of the source that are not given here.

Legend:
[1] = Human liver microsomal stability assay; type: in vitro ADME; details: human, microsomes
Text: (§1) Further examples of useful assays include metabolic stability assays, such as but not limited to e.g., liver microsomal clearance assays which provide measurement such as, but not limited to e.g., liver microsomal clearance half-life (t1/2), liver microsomal intrinsic clearance (CLint), and the like. Such measurements are useful in assessing various characteristics of a subject compound, such as e.g., the availability of an intact compound to provide a pharmacological effect. A compound having a longer microsomal clearance half-life (t1/2), e.g., than a reference compound, will provide better exposure of the intact compound and greater availability to produce the relevant pharmacological effect. A compound having a less microsomal clearance, e.g., as measured by liver microsomal intrinsic clearance (CLint), will similarly result in greater exposure of the intact compound available for an increase in the relevant pharmacological effect, e.g., as compared to that of a reference compound with a higher liver microsomal intrinsic clearance (CLint). Other useful assays include in vitro hepatocyte metabolic stability assays.
(§2) Such assessments included human and mouse liver microsomal stability assays as well as 6-hour mouse PK studies.

[2] = Mouse liver microsomal stability assay; type: in vitro ADME; details: mouse, microsomes
Text: as §1, §2

Mouse 6-hour PK study = details: mouse, in vivo
Text: Useful such assays include, but are not limited to e.g., those measurements made in PK studies, such as rodent and non-human primate PK studies, including e.g., mouse (such as mouse 6-hour PK studies), rat PK studies, cynomolgus or rhesus PK studies, or the like. Useful measurements obtained in such PK studies include but are not limited to e.g., maximum concentration (Cmax) reflecting the “peak” of a drug observed after its administration that can reflect not only the rate but also the extent of absorption, area under the curve (AUC) representing the area under the plot of tissue (e.g., plasma) concentration against time after drug administration which is of particular use in estimating bioavailability of drugs and drug total clearance, half-life (t1/2) or the period of time required for the concentration or amount of drug to be reduced to exactly one-half of a given concentration or amount that indicates the persistence of the drug in its volume of distribution, and the like.
as §2

[3] = test system: mouse model of turpentine oil (TO)-induced anemia of inflammation; experiment: Turpentine oil induced anemia of inflammation; type: in vivo; details: PO, hinokitiol as comparator in the respective studies
Description: Assay 3: Turpentine Oil Induced Anemia of Inflammation This is a model of anemia of inflammation by turpentine oil injection in combination with phlebotomy. Conditioning: Mice receive 3 doses of turpentine oil subcutaneously within 2 weeks. Mice are anesthetized and then administered 0.1 mL/20 g body weight of turpentine oil (TO) via subcutaneous injection in the scapular fat area using syringe and 27 G needle on Day 1, 7, and 14. On day 14, after the final injection of turpentine oil, a controlled 10% hemorrhage (approximately 200 uL) is accomplished via anesthetized orbital sinus bleed to increase the magnitude of anemia. The bleeding uses an orbital blood sampling technique, 200 uL capillary bleeding device (essentially a vacutainer tube with a glass capillary tube attached). Clean gauze lightly pre-soaked with sterile saline is held over the eye immediately following hemorrhage to promote hemostasis. Treatment: On day 15, 16 hours post last dose of turpentine oil, sham group and TO plus bleeding group are terminated. These two groups are used as part of control. On day 15, vehicle group and compound treatment groups receive proper vehicle or compounds at a specified dose accordingly, treatments can be oral once a day or oral twice a day. The treatment continues for 7 days, and then is terminated on day 21. On day 21, 3 hours post last treatment of test articles, the vehicle and treatment group are terminated. […] Depth of anesthesia is monitored by toe pinch method. […] Data analysis: The iron mobilization impact of compounds is assessed based on the serum iron level, transferrin saturation and TIBC; the ability of test article to restore normal iron homeostasis and metabolism, and subsequent rescue of anemia, is assessed by comparing the hemoglobin and hematocrit levels of test article treated groups with vehicle treated group. Test articles were evaluated in the described mouse model of turpentine oil (TO)-induced anemia of inflammation (A of I). […]

Row | SMILES | half-life [1] [h] | microsomal CLint [1] [µL/min/mg] | half-life [2] [h] | microsomal CLint [2] [µL/min/mg] | AUC(0-t) (Mouse 6-hour PK study) [ng·h/mL] | Cmax (Mouse 6-hour PK study) [ng/mL] | half-life (Mouse 6-hour PK study) [h] | Human CLint [1] | Human t1/2 [1] | Mouse CLint [2] | Mouse t1/2 [2] | clearance half-life (t1/2) and intrinsic clearance (CLint) as compared to hinokitiol [1] | clearance half-life (t1/2) and intrinsic clearance (CLint) as compared to hinokitiol [2] | mouse 6-hour PK properties as compared to hinokitiol (Mouse 6-hour PK study) | levels of Hgb compared with hinokitiol [3]
1 | CC(C)c1ccc(F)c(=O)c(O)c1 [Ex. 1, 7-fluoro-2-hydroxy-4-isopropylcyclohepta-2,4,6-trien-1-one] | 0.417 to 0.833 | 25 to 50 | > 2.5 | < 25 | 5000 to 20000 | 5000 to 20000 | 1.25 to 4.99 |  |  |  |  | longer clearance half-life (t1/2) and lower intrinsic clearance (CLint), or both as compared to hinokitiol | longer clearance half-life (t1/2) and lower intrinsic clearance (CLint), or both as compared to hinokitiol | one or more improved mouse 6-hour PK properties as compared to hinokitiol | comparable or higher levels of Hgb than hinokitiol
2 | CC(C)c1cccc(F)c(=O)c1O [Ex. 4, 7-fluoro-2-hydroxy-3-isopropylcyclohepta-2,4,6-trien-1-one] | 0.417 to 0.833 | > 50 | 0.417 to 0.833 | 25 to 50 | > 20000 | 5000 to 20000 | 1.25 to 4.99 |  |  |  |  | longer clearance half-life (t1/2) and lower intrinsic clearance (CLint), or both as compared to hinokitiol | longer clearance half-life (t1/2) and lower intrinsic clearance (CLint), or both as compared to hinokitiol | one or more improved mouse 6-hour PK properties as compared to hinokitiol | 
3 | O=c1ccc(OC2COC2)ccc1O [Ex. 12, 2-hydroxy-5-(oxetan-3-yloxy)cyclohepta-2,4,6-trien-1-one] |  |  |  |  | < 499 | 500 to 1500 | 1.25 to 4.99 | 0.00* μL/min/mg protein | ∞* | 0.00* μL/min/mg protein | ∞* | longer clearance half-life (t1/2) and lower intrinsic clearance (CLint), or both as compared to hinokitiol | longer clearance half-life (t1/2) and lower intrinsic clearance (CLint), or both as compared to hinokitiol | one or more improved mouse 6-hour PK properties as compared to hinokitiol | 
4 | Cc1cccc(F)c(=O)c1O [Ex. 32, 7-fluoro-2-hydroxy-3-methylcyclohepta-2,4,6-trien-1-one] | > 2.5 | < 25 | > 2.5 | < 25 | > 20000 | 5000 to 20000 | 1.25 to 4.99 |  |  |  |  | longer clearance half-life (t1/2) and lower intrinsic clearance (CLint), or both as compared to hinokitiol | longer clearance half-life (t1/2) and lower intrinsic clearance (CLint), or both as compared to hinokitiol | one or more improved mouse 6-hour PK properties as compared to hinokitiol | comparable or higher levels of Hgb than hinokitiol
5 | O=c1ccccc(OC2CCC2)c1O [Ex. 56, 3-cyclobutoxy-2-hydroxycyclohepta-2,4,6-trien-1-one] | 1.67 to 2.5 | < 25 | 0.417 to 0.833 | 25 to 50 | 1500 to 5000 | 1500 to 5000 | < 1.25 |  |  |  |  | longer clearance half-life (t1/2) and lower intrinsic clearance (CLint), or both as compared to hinokitiol | longer clearance half-life (t1/2) and lower intrinsic clearance (CLint), or both as compared to hinokitiol | one or more improved mouse 6-hour PK properties as compared to hinokitiol | 

More lines, main results first:

Row | half-life [1] [h] | microsomal CLint [1] [µL/min/mg] | half-life [2] [h] | microsomal CLint [2] [µL/min/mg] | AUC(0-t) (Mouse 6-hour PK study) [ng·h/mL] | Cmax (Mouse 6-hour PK study) [ng/mL] | half-life (Mouse 6-hour PK study) [h] | Human CLint [1] | Human t1/2 [1] | Mouse CLint [2] | Mouse t1/2 [2] | SMILES | clearance half-life (t1/2) and intrinsic clearance (CLint) as compared to hinokitiol [1] | clearance half-life (t1/2) and intrinsic clearance (CLint) as compared to hinokitiol [2] | mouse 6-hour PK properties as compared to hinokitiol (Mouse 6-hour PK study) | levels of Hgb compared with hinokitiol [3]
6 | 0.417 to 0.833 | 25 to 50 | 0.417 to 0.833 | 25 to 50 | 500 to 1500 | 1500 to 5000 | < 1.25 |  |  |  |  | O=c1ccccc([C@H]2CCCO2)c1O (single isomer, unassigned) [Ex. 41] | longer clearance half-life (t1/2) and lower intrinsic clearance (CLint), or both as compared to hinokitiol | longer clearance half-life (t1/2) and lower intrinsic clearance (CLint), or both as compared to hinokitiol | one or more improved mouse 6-hour PK properties as compared to hinokitiol | 
7 | 0.833 to 1.67 | < 25 | 0.417 to 0.833 | 25 to 50 | 500 to 1500 | 1500 to 5000 | < 1.25 |  |  |  |  | O=c1ccccc([C@@H]2CCCO2)c1O (single isomer, unassigned) [Ex. 42] | longer clearance half-life (t1/2) and lower intrinsic clearance (CLint), or both as compared to hinokitiol | longer clearance half-life (t1/2) and lower intrinsic clearance (CLint), or both as compared to hinokitiol | one or more improved mouse 6-hour PK properties as compared to hinokitiol | comparable or higher levels of Hgb than hinokitiol
8 | > 2.5 | < 25 | > 2.5 | < 25 | 5000 to 20000 | 5000 to 20000 | 1.25 to 4.99 |  |  |  |  | CC(C)c1cccc(=O)c(O)c1F [Ex. 2, 3-fluoro-2-hydroxy-4-isopropylcyclohepta-2,4,6-trien-1-one] | longer clearance half-life (t1/2) and lower intrinsic clearance (CLint), or both as compared to hinokitiol | longer clearance half-life (t1/2) and lower intrinsic clearance (CLint), or both as compared to hinokitiol | one or more improved mouse 6-hour PK properties as compared to hinokitiol | 
9 |  |  | > 2.5 | < 25 | > 20000 | > 20000 | 1.25 to 4.99 | 0.00* μL/min/mg protein | ∞* |  |  | O=c1c(F)cccc(C2CCOCC2)c1O [Ex. 36, 7-fluoro-2-hydroxy-3-(tetrahydro-2H-pyran-4-yl)cyclohepta-2,4,6-trien-1-one] | longer clearance half-life (t1/2) and lower intrinsic clearance (CLint), or both as compared to hinokitiol | longer clearance half-life (t1/2) and lower intrinsic clearance (CLint), or both as compared to hinokitiol | one or more improved mouse 6-hour PK properties as compared to hinokitiol | 
